Reference: patent publication US20060116403A1, “Therapeutic target and uses thereof” (priority 2002, published 2006)
Read-outs that look alike come from different tables or passages of the source.

Key:
[1] = test system: human vascular smooth muscle cells (internal mammary artery); assay: 35S-sulfate incorporation into total secreted proteoglycans (CPC precipitation); assay type: cell-based; details: for inhibition of PDGF-stimulated component of proteoglycan production: PDGF 50 ng/ml, imatinib 1 μM, genistein 100 μM
Procedure: The Human Ethics Committee of the Alfred Hospital and Baker Heart Research Institute approved the acquisition of tissue.
Cells were metabolically labeled with [^35S]-sulfate ([…]) for the final 24 h.
(§1) The culture media were collected and each plate rinsed with Dulbecco's PBS (0.25 ml). Aliquots (50 μl) of the media sample were spotted in duplicate on 30×15 mm rectangles of Whatman® 3M chromatography paper (Aldrich, Milwaukee, U.S.A.). The paper was washed five times in a solution containing cetylpyridinium chloride (CPC, 1% w/v) and NaCl (50 mM). Following air drying at room temperature, the paper from each sample was placed in liquid scintillation fluid (Packard, Groningen, The Netherlands) and radioactivity counted in a Beckman Coulter liquid scintillation analyzer (Fullerton, U.S.A). Counts from cells labeled with [^35S]-sulfate and Tran^35SLabel represented total sulfated GAGs and total core protein respectively.

[2] = test system: human vascular smooth muscle cells; assay: Size of proteoglycans and cleaved GAG chains by SDS-PAGE; assay type: cell-based; details: for effect on elongation of GAG chains stimulated by PDGF: PDGF treated cells; for effect on size of GAG chains released from proteoglycans, basal: basal (untreated cells); for effect on proteoglycan size (SDS-PAGE): basal and PDGF treated cells, imatinib 1 μM, genistein/daidzein 100 μM
Procedure: DEAE-Sephacel columns were prepared as previously described 19 and were washed with low salt buffer containing 8 M urea, 0.25 M NaCl, 0.02 M disodium EDTA and 0.5% Triton X-100. The media of 3 identical treatments was pooled and applied to the column. The columns were washed with low salt buffer to remove non-proteoglycan associated radioactivity. Fractions were collected with high salt buffer containing 8 M urea, 3 M NaCl, 0.02 M disodium EDTA and 0.5% Triton X-100.
Samples were prepared for SDS-PAGE by set counts so that the amount of radioactivity applied to the gel was the same for each treatment.
Proteoglycans eluted from DEAE columns and precipitated once with ethanol/potassium acetate solution were treated with sodium borohydride (1 M) in NaOH (50 mM) for 4 h at 45° C. to release the GAG chains. The free GAG chains were precipitated with the ethanol/potassium acetate solution and analyzed for size by SDS-PAGE.
For the estimation of apparent relative masses (MrS) ^14C high molecular weight standards (GIBCO BRL, Grand Island, U.S.A) were run in separate lanes.
The labeled proteoglycans, cleaved chains, xyloside-initiated GAGs and standard proteins were exposed (3 days) to a Fujifilm imaging plate (Fuji Photo Film Co., Japan) and the imaging plate scanned by the Bio-imaging analyzer BAS-1000 MacBas (Fuji Photo Film Co., Japan).

[3] = test system: human vascular smooth muscle cells; assay: Xyloside-initiated GAG chain synthesis and size; assay type: cell-based; details: xyloside 0.5 mM; for effect on increase in size of GAG chains on xyloside, PDGF: PDGF treated cells
Procedure: To study glycosaminoglycan (GAG) synthesis, cells were treated with exogenous xyloside which acts as an artificial and alternative substrate for the enzymes which normally catalyze the initiation of GAG chains on the protein core Nigro J et al (2002)) and Moses, J., Oldberg, A. & Fransson, L. A. Initiation of galactosaminoglycan biosynthesis. Separate galactosylation and dephosphorylation pathways for phosphoxylosylated decorin protein and exogenous xyloside. Eur J Biochem 260, 879-84 (1999)) generating free xyloside-initiated GAG chains. β-D-Xylopyranoside (xyloside) (0.5 mM) was prepared in DMEM with FBS (0.1%) and DMSO (0.1%). […] Cells were metabolically labeled with [^35S]-sulfate (50 μCi/well) for 24 hours.
SDS-PAGE gels were prepared following the procedure of Laemelli (Laemmli, U.K. Cleavage of structural proteins during the assembly of the head of bacteriophage T4. Nature 227, 680-5 (1970)) on 4-13% linear gradient separating gels for intact proteoglycans and 4-20% separating gels for cleaved chains and xyloside-initiated GAGs, with a 3.5% stacking gel. For the estimation of apparent relative masses (MrS) ^14C high molecular weight standards (GIBCO BRL, Grand Island, U.S.A) were run in separate lanes.
Cell cultures supplemented with xyloside synthesize the normal family of proteoglycans but also free GAG chains which are synthesized on the xyloside acting as a “false acceptor” for GAG initiation. […] The analysis of the production of the xyloside-initiated GAG chains therefore represents an independent assay of the activity of the GAG elongation process which normally determine the length of GAGs on proteoglycans. […]. GAG chains produced on xyloside are considerably smaller than free GAG chains synthesized on and released from proteoglycans (compare FIG. 2 right panel with FIG. 3 lower panel). The band at the bottom of the SDS-PAGE is the GAG chains initiated on xyloside. Genistein and daidzein have no effect on the size of the GAGs either under basal or PDGF stimulated conditions. […].

[4] = test system: human vascular smooth muscle cells; assay: Proteoglycan core protein synthesis (35S-methionine/cysteine, CPC precipitation); assay type: cell-based
Procedure: as §1
Effects on core protein biosynthesis can be evaluated by metabolically labeling the cells with labeled amino acids (^35S-methionine/cysteine) and using an isolation technique “CPC precipitation” which is specific for isolating proteoglycans. Thus, cells were treated identically to the above experiments but labeled with ^35S-methionine/cysteine. […]. Core protein biosynthesis was stimulated by PDGF (FIG. 5; […].

cAbl kinase = cAbl kinase (Homo sapiens, UniProt P00519); assay: Direct assay of cAbl kinase activity; assay type: biochemical
Procedure: The direct cAbl kinase inhibitory activity of several compounds was evaluated.

human LDL [5] = assay: LDL affinity chromatography of radiolabeled proteoglycans; assay type: cell-based; details: PDGF 50 ng/ml; imatinib 1 μM, genistein 100 μM
Procedure: Human blood samples were obtained from healthy subjects. LDL (d=1.019−1.063 g/ml) was purified from blood by sequential density gradient ultracentrifugation as described by Heinecke, J. W., Baker, L., Rosen, H. & Chait, A. Superoxide-mediated modification of low density lipoprotein by arterial smooth muscle cells. J Clin Invest 77, 757-61 (1986). The interaction of total pooled intact proteoglycan preparations with native human LDL was assessed using LDL affinity chromatography, providing a measure of binding capacity. […] Sepharose was prepared in the presence of excess heparin to protect the GAG binding sites. The columns were washed with HEPES buffer above and then with 1M NaCl to remove heparin. Each sample (80,000 cpm) was applied to a separate column. The columns were washed extensively with low salt buffer then eluted (5×0.5 ml) with 1M NaCl to elute bound proteoglycans. Finally the columns were stripped with high salt, high urea buffer. The aggregate radioactivity retained by the LDL column after extensive washing and eluted with 1M NaCl was determined as the binding capacity for the column.
We observed a 36% increase in the binding capacity of proteoglycans in PDGF treated cells compared to untreated cells (FIG. 5).

K562 cells = assay: Inhibition of K562 cell proliferation; assay type: cell-based
Excerpt: K562 cells are Philadelphia chromosome tumour cells in which constitutively active cAbl (but possibly other pathways) drive the cell proliferation. […] These cells provide an assay to discriminate inhibition of tyrosine kinases in a whole cell assay.

[6] = test system: vascular smooth muscle cells; details: cited from earlier work
[7] = test system: saphenous vein vascular smooth muscle cells; details: saphenous vein VSMC
Procedure: Cultures of vascular smooth muscle cells from human saphenous veins samples obtained (with Ethics approval) from Cardiac Theatres at the Alfred Hospital were prepared.

human LDL [8] = assay: Gel Mobility Shift Assay of core protein labelled proteoglycans binding to human LDL; details: basal
Procedure: A new approach to these studies is now used in which the proteoglycan core proteins are metabolically radio-labelled and used to study the binding of human LDL. Cells are incubated with Translabel® (ICN Biochemicals) (^35S-methioinine and cysteine amino acids) and the amino acids are incorporated into the core proteins.
Core protein labelled proteoglycans were isolated by DEAE sepharose ion exchange chromatography and then the binding to human LDL was studied in a Gel Mobility Shift Assay in which a set amount of radiolabeled proteoglycan is incubated with various amounts of LDL and then the bound and free proteoglycans are separated on a flat bed agarose gel.

[9] = test system: vascular smooth muscle cells; assay: 35S-sulphate incorporation into proteoglycans, cAbl siRNA transfection compared with imatinib; assay type: cell-based, human; details: culture media
Excerpt: An independent method is available to examine this question by using molecular biology techniques to block the expression of the mRNA for cAbl and thus reduce the actual level of cAbl mRNA, protein and enzyme activity in the cell. A new technique of post-transcriptional gene silencing known as small inhibitory RNA (or siRNA) has recently been developed in which cells are transfected with an siRNA which leads to the breakdown and loss of the target mRNA in this case cAbl RNA. This is a highly specific technique which complements the pharmacological approach. […] Target sequences for siRNA have been identified from the scanning of the coding region of the human c-Abl gene. Four of these potential sites were selected and compared to a genome database to identify any sequence homology to other genes. Following identification of target sequences, sense and anti-sense siRNA oligonucleotide templates are constructed consisting of 21 nucleotides encoding the siRNA and 8 nucleotides complementary to a promoter primer. […] Both sense and anti-sense siRNA oligonucleotide templates were hybridised to a promoter primer. Double stranded siRNA transcription templates was created by extending the hybridised oligonucleotides using the Klenow fragment of DNA polymerase and RNA polymerase used to transcribe the sense and anti-sense siRNA templates which were then hybridised to dsRNA. […]

[10] = Homo sapiens, 24 h, read-out: inhibition of basal proteoglycan production

Chain of cAbl kinase (P00519 whole entry): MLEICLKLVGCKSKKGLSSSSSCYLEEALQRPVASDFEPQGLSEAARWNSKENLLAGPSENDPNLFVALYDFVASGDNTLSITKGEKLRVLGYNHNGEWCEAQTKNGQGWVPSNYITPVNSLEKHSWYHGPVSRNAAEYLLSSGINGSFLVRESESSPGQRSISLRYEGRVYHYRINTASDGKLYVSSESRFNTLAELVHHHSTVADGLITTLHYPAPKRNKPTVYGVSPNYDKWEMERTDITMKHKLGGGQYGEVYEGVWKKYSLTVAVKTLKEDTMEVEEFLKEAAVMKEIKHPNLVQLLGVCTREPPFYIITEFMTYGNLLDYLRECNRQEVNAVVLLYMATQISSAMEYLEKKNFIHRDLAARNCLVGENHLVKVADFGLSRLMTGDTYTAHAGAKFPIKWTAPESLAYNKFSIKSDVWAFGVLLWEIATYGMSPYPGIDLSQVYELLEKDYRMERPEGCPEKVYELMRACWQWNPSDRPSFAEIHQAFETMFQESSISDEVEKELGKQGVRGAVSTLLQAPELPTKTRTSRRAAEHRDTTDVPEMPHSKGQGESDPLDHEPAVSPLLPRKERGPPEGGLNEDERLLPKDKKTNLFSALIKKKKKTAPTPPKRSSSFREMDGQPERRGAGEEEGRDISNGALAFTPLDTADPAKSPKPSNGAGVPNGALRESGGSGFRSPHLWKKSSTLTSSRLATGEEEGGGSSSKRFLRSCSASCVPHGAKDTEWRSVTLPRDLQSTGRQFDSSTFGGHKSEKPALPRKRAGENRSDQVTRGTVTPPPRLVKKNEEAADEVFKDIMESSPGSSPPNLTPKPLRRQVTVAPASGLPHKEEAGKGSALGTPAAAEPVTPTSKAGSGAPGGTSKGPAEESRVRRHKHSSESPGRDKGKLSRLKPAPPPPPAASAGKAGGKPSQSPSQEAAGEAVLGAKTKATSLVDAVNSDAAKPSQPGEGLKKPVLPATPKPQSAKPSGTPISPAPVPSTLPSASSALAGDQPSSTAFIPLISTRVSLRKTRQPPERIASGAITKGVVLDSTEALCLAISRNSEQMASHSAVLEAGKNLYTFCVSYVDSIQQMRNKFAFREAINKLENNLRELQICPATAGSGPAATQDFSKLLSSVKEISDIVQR

Compound | effect on elongation of GAG chains stimulated by PDGF [2] | effect on size of GAG chains released from proteoglycans, basal [2] | effect on proteoglycan size (SDS-PAGE) [2] | effect on combined production of proteoglycans and xyloside-initiated GAG chains [3] | effect on increase in size of GAG chains on xyloside, PDGF [3] | effect on size of GAG chains on xyloside, basal [3] | effect on PDGF-stimulated core protein biosynthesis [4] | effect on basal proteoglycan core protein biosynthesis [4] | inhibition of cAbl kinase activity (cAbl kinase) | inhibition of PDGF-stimulated component of proteoglycan production [1] | effect on increased LDL binding of proteoglycans from PDGF treated cells (human LDL [5]) | also measured
O=c1c(-c2ccc(O)cc2)coc2cc(O)ccc12 [daidzein, 4′,7-dihydroxyisoflavone] | no effect | no effect | no effect | essentially identical | no effect | no effect | attenuated | considerably less active than genistein | little activity | – | – | inhibition of basal proteoglycan production ([1]; basal, daidzein 100 μM): little inhibitory activity
O=c1c(-c2ccc(O)cc2)coc2cc(O)cc(O)c12 [genistein, 4′,5,7-trihydroxyisoflavone] | no effect | no effect | no effect | essentially identical | no effect | no effect | attenuated | reduced | little activity | less inhibitory than imatinib | does not prevent | inhibition at 100 µM [1, 10]: 64%; concentration of maximal effect on proteoglycan production ([1]; dose response curves): 100 µM; potency against cAbl relative to imatinib (times less potent) (cAbl kinase): 160 times; inhibition of K562 cell proliferation (K562 cells): little or no inhibitory activity; effect on total proteoglycan production ([6]; Primate VSMC in culture): inhibited; effect on basal expression of versican mRNA and core protein ([6]; basal): almost completely abolishes; effect on GAG length [6]: no effect
CO[C@H]1[C@@H](OC)C[C@H](C)[C@@H](OC)C2=CC(=O)C=C(NC(=O)/C(C)=C/C=C\[C@H](OC)[C@@H](OC(N)=O)/C(C)=C/[C@@H]1C)C2=O [herbimycin] | – | – | – | – | – | – | – | – | little activity | – | – | effect on radiosulfate incorporation into proteoglycans ([1]; herbimycin): does not inhibit; effect on size of GAGs on proteoglycan (SDS-PAGE) ([2]; herbimycin): does not reduce; inhibition of cAbl kinase activity (cAbl kinase; listed as Herbimycin): no inhibitory activity
Cc1ccc(NC(=O)c2ccc(CN3CCN(C)CC3)cc2)cc1Nc1nccc(-c2cccnc2)n1 [imatinib, 4-[(4-methyl-1-piperazinyl)methyl]-N-[4-methyl-3-[[4-(3-pyridinyl)-2-pyrimidinyl]amino-phenyl]benzamide methanesulfonate] | – | – | – | essentially identical | completely prevented | slightly reduced | attenuated | very small but not statistically significant inhibitory effect | – | totally blocked | completely abolished | inhibition at 1 µM [1, 10]: 56%; effect on GAG length (SDS-PAGE mobility) [7]: shortens; decrease in LDL binding affinity (human LDL [8]): three fold
siRNA (MB 61): siRNA directed to cAbl; anti-sense template 5′-AAGAAAAACTTCATCCACAGA-3′, sense template 5′-AATCTGTGGATGAAGTTTTTC-3′ (antisense AAGAAAAACTTCATCCACAGA; sense AATCTGTGGATGAAGTTTTTC; chemistry not given here; the letters are possibly those of the target site) | – | – | – | – | – | – | – | – | – | – | – | reduction in 35S-sulphate incorporation, PDGF cells ([9]; PDGF stimulated): 50%; inhibition of radiosulphate incorporation, control cells ([9]; control cells, 24 h): 30-40%
